Patent publication US5508180A, “Biocatalytic oxidation using soybean peroxidase” (Enzymol International, Inc., priority 1994, dated 1996)

Tests used:
Assay type in all cases: biochemical
soybean peroxidase [1] = target: T1, soybean peroxidase (Glycine max, UniProt O22443); experiment: Oxidation of methyl p-tolyl sulfide to sulfoxide and sulfone by soybean peroxidase; conditions: for Absorbance Units at 308 nm: pH 2 (conversion to sulfone)
T1 construct: secreted heme glycoprotein, reported 37 kDa
T1 sequence (O22443 27-332): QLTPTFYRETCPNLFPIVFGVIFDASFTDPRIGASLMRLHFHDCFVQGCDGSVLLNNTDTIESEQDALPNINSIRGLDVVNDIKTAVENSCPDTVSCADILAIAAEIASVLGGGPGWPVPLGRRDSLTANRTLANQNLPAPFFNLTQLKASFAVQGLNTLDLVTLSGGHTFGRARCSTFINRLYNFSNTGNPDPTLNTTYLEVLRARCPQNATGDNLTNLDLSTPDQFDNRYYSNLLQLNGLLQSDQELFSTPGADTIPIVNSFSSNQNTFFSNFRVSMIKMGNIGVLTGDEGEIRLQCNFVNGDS
Method: Methyl p-tolyl sulfide (MTS), and the enantiomeric oxidation products (R)-(+)-methyl tolyl sulfoxide (MTSO) and (S)-(-)-methyl tolyl sulfoxide, were purchased from Aldrich (Milwaukee, Wis). A stock solution of MTS was prepared by adding 1 g MTS to 750 ml water and heating at 60° C. for 15 min. A warm stock solution was used for all assays to maintain the substrate in solution. […] At pH 2 these peaks shift to 274 and 311 nm, respectively.
Assays with MTS were done with 120 ppu SBP and 1 mM H2 O2.
The effect of pH on the oxidation of MTS was studied to optimize the reaction. Buffers were used at the indicated pH at 25 mM concentration.
The effect of temperature on aromatic sulfide oxidation was investigated at pH 3.5 using MTS. Conditions were 120 ppu SBP, 25 mM Glycine, 2 mM MTS, 1 mM H2 O2.

soybean peroxidase [2] = target: T1, soybean peroxidase; experiment: Oxidation of veratryl alcohol to veratryl aldehyde by soybean peroxidase and hydrogen peroxide, absorbance at 308 nm
Method: Preparation of Soybean Peroxidase Solution: Purified soybean peroxidase was lyophilized to give a powder at 120 purpurogallin units (as defined by Sigma) per mg. Purification was done with addition of 5 mM CaCl2, but without buffers or other non-volatile substances which would carry over with the enzyme in the powder. Lyophilization typically yielded 4.5 g from 60 ml. […] Using the extinction coefficient reported for heme in HRP ([…] at 403 nm in 0.1M Tris pH 7), and the reported molecular weight of SBP (37,000), the solid was 60% peroxidase by weight.
Preparation of peroxide stock solution: 1.5 ml of 30% hydrogen peroxide was diluted to 100 ml with water to provide a 0,147M stock solution of hydrogen peroxide.
0.1 ml soybean peroxidase (120 purpurogallin units/ml) stock solution was added to 3 ml veratryl alcohol solution (1 g veratryl alcohol in 750 ml water) and vortexed in a test tube. 20 μl peroxide stock solution was added, mixed and the solution poured into a 1 cm path, 4 ml quartz cuvette. Using a Shimadzu UV-160 double beam recording spectophotometer, the change in absorbance of the sample compared to a reference cuvette containing 3 ml veratryl alcohol solution only was monitored every minute by scanning wavelengths from 500 to 200 nm. The peak wavelength of 308 nm was identified as veratryl aldehyde and was used for further monitoring. The kinetics of the reaction were determined from the linear portion of the increase in absorbance.
To determine the effects of pH on the oxidation of veratryl alcohol, a veratryl alcohol stock solution containing 20 mM CaCl2 was divided into 9 samples and each sample treated with HCl to provide 9 samples ranging in pH from 1.25 to 3.3 ml of solution was withdrawn from each sample and the change in absorbance (dA) of veratryl alcohol in each sample was measured at 308 nm at room temperature.
To determine the effects of temperature on veratryl alcohol oxidation at a pH of 2, 5 samples of a veratryl alcohol stock solution without CaCl2 were obtained and the absorbance of veratryl alcohol was measured at varying temperatures. The samples were incubated in a circulating water bath and cuvette blocks were preheated by connection with the same bath. The test cuvette was left empty in the block to equilibrate prior to assay. Enzyme and peroxide stock solutions were stored at room temperature. Assay was initiated by pouring the alcohol solution into the cuvette, adding 0.1 ml enzyme, inverting, adding 20 ul peroxide, inverting, and immediately starting to record change in absorbance.

soybean peroxidase [3] = target: T1, soybean peroxidase; experiment: Oxygen-mediated hydroxylation of tyrosine by soybean peroxidase with dihydroxyfumaric acid, loss of DHF absorbance
Method: Tyrosine, 0.2 g was added to 150 ml water and HCl was added until the tyrosine dissolved at about pH 3. Dihydroxyfumaric acid (DHF), 0.44 g was added to 100 ml water and dilute (1%) sodium hydroxide was added until the acid dissolved at about pH 3.
Hydroxylation of tyrosine was achieved by mixing 2 ml tyrosine solution, 1 ml 0.1M buffer selected from a range of pH 1-13, 0.1 ml soybean peroxidase at 10 mg/ml and last, adding 0.1 ml DHF stock solution. The reference curvette contained the same mixture of tyrosine, buffer and DHF stock solutions. No hydrogen peroxide was used in these reaction. Dissolved oxygen from air served as the source of oxidant. Peak wavelength corresponding to DHF, determined by DHF absorbance in the solution, was monitored for loss in absorbance, indicating consumption of the reducing agent and hydroxylation of the phenol. Oxidation was followed by monitoring wavelengths from 500 to 200 nm at zero time and 1 minute of reaction. The absorbance difference at the wavelength corresponding to loss of DHF was recorded.

## CSc1ccc(C)cc1 [MTS, Methyl p-tolyl sulfide]
Soybean peroxidase [1]
  pH optimum of oxidation of MTS to MTSO: 3.5
Soybean peroxidase [1]; 25 °C, pH 3.5, 120 ppu SBP, 25 mM Glycine, 2 mM MTS, 1 mM H2O2
  dA per min at 279 nm: 0.0607
Soybean peroxidase [1]; 35 °C, pH 3.5, 120 ppu SBP, 25 mM Glycine, 2 mM MTS, 1 mM H2O2
  dA per min at 279 nm: 0.0824
Soybean peroxidase [1]; 45 °C, pH 3.5, 120 ppu SBP, 25 mM Glycine, 2 mM MTS, 1 mM H2O2
  dA per min at 279 nm: 0.1012
Soybean peroxidase [1]; 55 °C, pH 3.5, 120 ppu SBP, 25 mM Glycine, 2 mM MTS, 1 mM H2O2
  dA per min at 279 nm: 0.1735
Soybean peroxidase [1]; 65 °C, pH 3.5, 120 ppu SBP, 25 mM Glycine, 2 mM MTS, 1 mM H2O2
  dA per min at 279 nm: 0.2563
Soybean peroxidase [1]; 75 °C, pH 3.5, 120 ppu SBP, 25 mM Glycine, 2 mM MTS, 1 mM H2O2
  dA per min at 279 nm: 0.1065
Soybean peroxidase [1]; 85 °C, pH 3.5, 120 ppu SBP, 25 mM Glycine, 2 mM MTS, 1 mM H2O2
  dA per min at 279 nm: 0.0908
Soybean peroxidase [1]; pH 1, 25 mM buffer
  dA per min at 279 nm: 0.0348
Soybean peroxidase [1]; pH 2, 25 mM buffer
  dA per min at 279 nm: -0.1376
Soybean peroxidase [1]; pH 3, 25 mM buffer
  dA per min at 279 nm: 0.1042
Soybean peroxidase [1]; pH 3.5, 25 mM buffer
  dA per min at 279 nm: 0.218
Soybean peroxidase [1]; pH 4, 25 mM buffer
  dA per min at 279 nm: 0.0893
Soybean peroxidase [1]; pH 4.5, 25 mM buffer
  dA per min at 279 nm: 0.0017
Soybean peroxidase [1]; time of reaction 0 min
  Absorbance Units at 308 nm: 0.21 Absorbance Units
Soybean peroxidase [1]; time of reaction 1 min
  Absorbance Units at 308 nm: 0.293 Absorbance Units
Soybean peroxidase [1]; time of reaction 2 min
  Absorbance Units at 308 nm: 0.35 Absorbance Units
Soybean peroxidase [1]; time of reaction 3 min
  Absorbance Units at 308 nm: 0.381 Absorbance Units
Soybean peroxidase [1]; time of reaction 4 min
  Absorbance Units at 308 nm: 0.401 Absorbance Units

## COc1ccc(CO)cc1OC [veratryl alcohol, 3,4-dimethoxybenzyl alcohol]
Soybean peroxidase [2]; 0.1M KCl/HCl buffer at pH 2
  activity (dA per minute at 308 nm): 0.2265
Soybean peroxidase [2]; 25 °C, pH 2, without CaCl2
  dA per minute at 308 nm: 1.427
Soybean peroxidase [2]; 35 °C, pH 2, without CaCl2
  dA per minute at 308 nm: 2.358
Soybean peroxidase [2]; 45 °C, pH 2, without CaCl2
  dA per minute at 308 nm: 3.17
Soybean peroxidase [2]; 55 °C, pH 2, without CaCl2
  dA per minute at 308 nm: 0.3467
Soybean peroxidase [2]; 65 °C, pH 2, without CaCl2
  dA per minute at 308 nm: 0.0018
Soybean peroxidase [2]; pH 1.25, 20 mM CaCl2, room temperature
  dA per minute at 308 nm: 0.0045
Soybean peroxidase [2]; pH 1.35, 20 mM CaCl2, room temperature
  dA per minute at 308 nm: 0.0361
Soybean peroxidase [2]; pH 1.65, 20 mM CaCl2, room temperature
  dA per minute at 308 nm: 0.2358
Soybean peroxidase [2]; pH 1.85, 20 mM CaCl2, room temperature
  dA per minute at 308 nm: 1.611
Soybean peroxidase [2]; pH 2.15, 20 mM CaCl2, room temperature
  dA per minute at 308 nm: 0.945
Soybean peroxidase [2]; pH 2.35, 20 mM CaCl2, room temperature
  dA per minute at 308 nm: 0.2243
Soybean peroxidase [2]; pH 2.55, 20 mM CaCl2, room temperature
  dA per minute at 308 nm: 0.1093
Soybean peroxidase [2]; pH 2.85, 20 mM CaCl2, room temperature
  dA per minute at 308 nm: 0.0587
Soybean peroxidase [2]; pH 3, 20 mM CaCl2, room temperature
  dA per minute at 308 nm: 0.0119
Soybean peroxidase [2]; veratryl alcohol oxidation
  pH optimum: around 2

## N[C@@H](Cc1ccc(O)cc1)C(=O)O [tyrosine, Tyrosine]
Soybean peroxidase [3]; pH 1, λ 310 nm, loss of DHF absorbance
  dA per min: 0
Soybean peroxidase [3]; pH 2, λ 315 nm, loss of DHF absorbance
  dA per min: 0.012
Soybean peroxidase [3]; pH 3, λ 321 nm, loss of DHF absorbance
  dA per min: 0.726
Soybean peroxidase [3]; pH 3.5, λ 318 nm, loss of DHF absorbance
  dA per min: 0.886
Soybean peroxidase [3]; pH 4, λ 319 nm, loss of DHF absorbance
  dA per min: 0.065
Soybean peroxidase [3]; pH 4.5, λ 320 nm, loss of DHF absorbance
  dA per min: 0.391
Soybean peroxidase [3]; pH 5, λ 303 nm, loss of DHF absorbance
  dA per min: 1.897
Soybean peroxidase [3]; pH 5.5, λ 302 nm, loss of DHF absorbance
  dA per min: 0.971
Soybean peroxidase [3]; pH 6, λ 302 nm, loss of DHF absorbance
  dA per min: 2.226
Soybean peroxidase [3]; pH 6.5, λ 302 nm, loss of DHF absorbance
  dA per min: 2.134
Soybean peroxidase [3]; pH 7, interference from Tris buffer
  dA per min: 0
Soybean peroxidase [3]; pH 7.5, interference from Tris buffer
  dA per min: 0
Soybean peroxidase [3]; pH 8, interference from Tris buffer
  dA per min: 0
Soybean peroxidase [3]; pH 8.5, λ 305 nm, loss of DHF absorbance
  dA per min: 1.098
Soybean peroxidase [3]; pH 9, λ 304 nm, loss of DHF absorbance
  dA per min: 1.705
Soybean peroxidase [3]; pH 9.5, λ 302 nm, loss of DHF absorbance
  dA per min: 1.66
Soybean peroxidase [3]; pH 10, λ 302 nm, loss of DHF absorbance
  dA per min: 0.768
Soybean peroxidase [3]; pH 10.5, λ 302 nm, loss of DHF absorbance
  dA per min: 1.372
Soybean peroxidase [3]; pH 11, λ 302 nm, loss of DHF absorbance
  dA per min: 1.988
Soybean peroxidase [3]; pH 11.5, λ 305 nm, loss of DHF absorbance
  dA per min: 0.075
Soybean peroxidase [3]; pH 12, λ 305 nm, loss of DHF absorbance
  dA per min: 0.069
Soybean peroxidase [3]; pH 13, λ 305 nm, loss of DHF absorbance
  dA per min: 0
